The text below walks through data of patent US6933319B2, “Resorcinol derivatives” (Pfizer Inc., priority 1999, dated 2005).

In the experiment the target is T1, human tyrosinase (Homo sapiens, UniProt P14679).
T1 construct: endogenous in cells; host or cells: SKMEL 188 human melanoma cell line (lysate)
T1 sequence (P14679 19-529): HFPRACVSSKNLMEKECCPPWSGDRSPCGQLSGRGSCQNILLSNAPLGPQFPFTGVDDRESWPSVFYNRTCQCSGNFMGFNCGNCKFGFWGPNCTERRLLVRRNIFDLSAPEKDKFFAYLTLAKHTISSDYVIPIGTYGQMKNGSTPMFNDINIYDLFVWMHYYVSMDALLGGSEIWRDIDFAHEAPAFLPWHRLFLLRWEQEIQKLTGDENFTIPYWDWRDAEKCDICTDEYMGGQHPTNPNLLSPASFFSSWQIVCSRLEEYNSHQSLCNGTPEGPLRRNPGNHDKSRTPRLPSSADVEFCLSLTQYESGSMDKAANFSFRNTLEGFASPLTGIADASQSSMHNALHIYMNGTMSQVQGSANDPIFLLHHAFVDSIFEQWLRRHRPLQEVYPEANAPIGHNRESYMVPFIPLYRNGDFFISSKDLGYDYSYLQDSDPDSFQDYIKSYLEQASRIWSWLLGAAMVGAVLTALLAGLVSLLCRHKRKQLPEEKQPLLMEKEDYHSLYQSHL
The experiment is described as follows: Tyrosinase (DOPA Oxidase) Assay Using Cell Lysate. The format is biochemical. The conditions noted are these: SKMEL 188 human melanoma cell lysate; L-DOPA 100 μg/ml; incubated 8 hrs; read at 405 nm. The protocol: 1. Tyrosinase (DOPA Oxidase) Assay Using Cell Lysate:
Human melanoma cell line, SKMEL 188 (licensed from Memorial Sloan-Kettering), is used in the cell lysate assay and the screen. In the assay, compounds and L-dihydroxyphenylalanine (L-DOPA) (100 μg/ml) are incubated with the cell lysates containing human tyrosinase for 8 hrs before the plates are read at 405 nm. Potency of the compounds in DOPA oxidase assay is correlated very well with that in tyrosine hydroxylase assay using ^3H-tyrosine as a substrate.

By IC50 is commonly meant the midpoint of a concentration-inhibition curve. Higher therefore signals weaker potency in that assay. For `ON=C1CCC(c2ccc(O)cc2O)C1` (racemic) [Example 23, (±)-3-(2,4-Dihydroxyphenyl)cyclopentanone oxime], the IC50 is roughly 2000 nM.
